In the supplement of paper PMC10307832:

What was measured:
Assay in all cases: relative viability (nuclei count vs DMSO), 5 days (fraction); higher = more cells survive
NCI-H1666 = system: NCI-H1666
Outline: (§1)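 Cells from lung cancer lines were seeded into 1536-well plates and, one day later, dosed by pin tool. Treatments were either a single drug or a fixed dose of an anchor drug with five library-drug doses (not always all listed) in √10 steps. After 5 days, nuclei were stained in a one-step fixation (final 0.05% Triton X-100, 1% formaldehyde, 1 ug/ml Hoechst) and counted on 4× images, and relative viability is the treated-to-vehicle nuclei ratio, as the median of duplicate plates.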

NCI-H1915 = system: NCI-H1915
Outline: as §1

NCI-H460 = system: NCI-H460
Outline: as §1

UMC-11 = system: UMC-11
Outline: as §1

LC-2-ad = system: LC-2-ad
Outline: as §1

HCC-78 = system: HCC-78
Outline: as §1

NCI-H2170 = system: NCI-H2170
Outline: as §1

NCI-H1792 = system: NCI-H1792
Outline: as §1

NCI-H358 = system: NCI-H358
Outline: as §1

NCI-H2085 = system: NCI-H2085
Outline: as §1

HOP-62 = system: HOP-62
Outline: as §1

LU99A = system: LU99A
Outline: as §1

A-427 = system: A-427
Outline: as §1

NCI-H1793 = system: NCI-H1793
Outline: as §1

EPLC-272H = system: EPLC-272H
Outline: as §1

COR-L 105 = system: COR-L 105
Outline: as §1

NCI-H1944 = system: NCI-H1944
Outline: as §1

NCI-H2009 = system: NCI-H2009
Outline: as §1

LXF-289 = system: LXF-289
Outline: as §1

SK-LU-1 = system: SK-LU-1
Outline: as §1

HCC-366 = system: HCC-366
Outline: as §1

COc1nc(C)cnc1NS(=O)(=O)c1cccnc1-c1ccc(-c2nnco2)cc1 [Zibotentan] + CS(=O)(=O)N1CCN(Cc2cc3nc(-c4cccc5[nH]ncc45)nc(N4CCOCC4)c3s2)CC1 [Pictilisib] (partner 1 µM)
relative viability (NCI-H1666; first compound 0.08 µM): 0.553 | relative viability (NCI-H1666; first compound 0.253 µM): 0.361 | relative viability (NCI-H1666; first compound 0.8 µM): 0.467 | relative viability (NCI-H1666; first compound 2.53 µM): 0.429 | relative viability (NCI-H1915; first compound 0.08 µM): 1.01 | relative viability (NCI-H1915; first compound 0.253 µM): 0.955 | relative viability (NCI-H1915; first compound 0.8 µM): 0.873 | relative viability (NCI-H1915; first compound 2.53 µM): 0.96 | relative viability (NCI-H460; first compound 0.08 µM): 0.351 | relative viability (NCI-H460; first compound 0.253 µM): 0.336 | relative viability (NCI-H460; first compound 0.8 µM): 0.327 | relative viability (NCI-H460; first compound 2.53 µM): 0.38 | relative viability (UMC-11; first compound 0.08 µM): 0.746 | relative viability (UMC-11; first compound 0.253 µM): 0.809 | relative viability (UMC-11; first compound 0.8 µM): 0.837 | relative viability (UMC-11; first compound 2.53 µM): 0.777 | relative viability (LC-2-ad; first compound 0.08 µM): 0.48 | relative viability (LC-2-ad; first compound 0.253 µM): 0.406 | relative viability (LC-2-ad; first compound 0.8 µM): 0.527 | relative viability (LC-2-ad; first compound 2.53 µM): 0.435 | relative viability (HCC-78; first compound 0.08 µM): 0.0937 | relative viability (HCC-78; first compound 0.253 µM): 0.23 | relative viability (HCC-78; first compound 0.8 µM): 0.198 | relative viability (HCC-78; first compound 2.53 µM): 0.195 | relative viability (NCI-H2170; first compound 0.08 µM): 0.282 | relative viability (NCI-H2170; first compound 0.253 µM): 0.295 | relative viability (NCI-H2170; first compound 0.8 µM): 0.316 | relative viability (NCI-H2170; first compound 2.53 µM): 0.368 | relative viability (NCI-H1792; first compound 0.08 µM): 0.275 | relative viability (NCI-H1792; first compound 0.253 µM): 0.234 | relative viability (NCI-H1792; first compound 0.8 µM): 0.257 | relative viability (NCI-H1792; first compound 2.53 µM): 0.246 | relative viability (NCI-H358; first compound 0.08 µM): 0.318 | relative viability (NCI-H358; first compound 0.8 µM): 0.395 | relative viability (NCI-H358; first compound 2.53 µM): 0.378 | relative viability (NCI-H2085; first compound 0.08 µM): 0.477 | relative viability (NCI-H2085; first compound 0.253 µM): 0.495 | relative viability (NCI-H2085; first compound 0.8 µM): 0.477 | relative viability (NCI-H2085; first compound 2.53 µM): 0.517 | relative viability (HOP-62; first compound 0.08 µM): 0.687 | relative viability (HOP-62; first compound 0.253 µM): 0.769 | relative viability (HOP-62; first compound 0.8 µM): 0.752 | relative viability (HOP-62; first compound 2.53 µM): 0.851 | relative viability (LU99A; first compound 0.08 µM): 0.362 | relative viability (LU99A; first compound 0.253 µM): 0.314 | relative viability (LU99A; first compound 0.8 µM): 0.343 | relative viability (LU99A; first compound 2.53 µM): 0.371 | relative viability (A-427; first compound 0.08 µM): 0.909 | relative viability (A-427; first compound 0.253 µM): 0.733 | relative viability (A-427; first compound 0.8 µM): 0.68 | relative viability (A-427; first compound 2.53 µM): 0.751 | relative viability (NCI-H1793; first compound 0.08 µM): 0.429 | relative viability (NCI-H1793; first compound 0.253 µM): 0.306 | relative viability (NCI-H1793; first compound 0.8 µM): 0.391 | relative viability (NCI-H1793; first compound 2.53 µM): 0.345 | relative viability (EPLC-272H; first compound 0.08 µM): 0.363 | relative viability (EPLC-272H; first compound 0.253 µM): 0.289 | relative viability (EPLC-272H; first compound 0.8 µM): 0.239 | relative viability (EPLC-272H; first compound 2.53 µM): 0.297 | relative viability (COR-L 105; first compound 0.08 µM): 0.523 | relative viability (COR-L 105; first compound 0.253 µM): 0.357 | relative viability (COR-L 105; first compound 0.8 µM): 0.477 | relative viability (COR-L 105; first compound 2.53 µM): 0.502 | relative viability (NCI-H1944; first compound 0.08 µM): 0.368 | relative viability (NCI-H1944; first compound 0.253 µM): 0.323 | relative viability (NCI-H1944; first compound 0.8 µM): 0.338 | relative viability (NCI-H1944; first compound 2.53 µM): 0.393 | relative viability (NCI-H2009; first compound 0.08 µM): 0.889 | relative viability (NCI-H2009; first compound 0.253 µM): 0.774 | relative viability (NCI-H2009; first compound 0.8 µM): 0.822 | relative viability (NCI-H2009; first compound 2.53 µM): 0.886 | relative viability (LXF-289; first compound 0.08 µM): 0.774 | relative viability (LXF-289; first compound 0.253 µM): 0.739 | relative viability (LXF-289; first compound 0.8 µM): 0.814 | relative viability (LXF-289; first compound 2.53 µM): 0.783 | relative viability (SK-LU-1; first compound 0.08 µM): 0.603 | relative viability (SK-LU-1; first compound 0.253 µM): 0.456 | relative viability (SK-LU-1; first compound 0.8 µM): 0.603 | relative viability (SK-LU-1; first compound 2.53 µM): 0.54 | relative viability (HCC-366; first compound 0.08 µM): 0.145 | relative viability (HCC-366; first compound 0.253 µM): 0.156 | relative viability (HCC-366; first compound 0.8 µM): 0.141 | relative viability (HCC-366; first compound 2.53 µM): 0.148
